The values that follow come from ChEMBL document CHEMBL3797114, “Design, synthesis and biological evaluation of 6-substituted pyrrolo[2,3-d]pyrimidines as dual inhibitors of TS and AICARFTase and as potential antitumor agents” (Eur J Med Chem, 2016).

Activity calls are given as the source filed them. No cut-off for these calls is given here.

The nature of experiment [1]: Antiproliferative activity against human SW620 cells after 72 hrs by MTT assay in presence of leucovorin. Particulars: SW-620, 72 h. It is filed as functional, cell-based.
For a further experiment, the system named is A549. Description: Antiproliferative activity against human A549 cells after 72 hrs by MTT assay in presence of leucovorin. To be noted: A549, 72 h. Format: functional, cell-based. On the technique in general: Tetrazolium dyes change colour on reduction, which living cells bring about.
In experiment [2] the test system is KB. Description: Antiproliferative activity against human KB cells after 72 hrs by MTT assay in presence of leucovorin. Format: functional, cell-based.
Experiment [3] is described as follows: Cell cycle arrest in human SW620 cells assessed as accumulation at G2 phase at 10 uM after 96 hrs by propidium iodide staining based flow cytometry in presence of leucovorin (reference value: 10.3 %). It is filed as functional. Particulars: SW-620. (Flow cytometry measures light scatter and fluorescence of single cells or particles in a stream.)
Experiment [4] in a line: Cell cycle arrest in human SW620 cells assessed as accumulation at G1 phase at 10 uM after 96 hrs by propidium iodide staining based flow cytometry in presence of leucovorin (reference value: 62.4 %). Particulars: SW-620. It is filed as functional.
A short description of experiment [5]: Cell cycle arrest in human SW620 cells assessed as accumulation at S phase at 10 uM after 96 hrs by propidium iodide staining based flow cytometry in presence of leucovorin (reference value: 27.3 %). Format: functional. Particulars: SW-620.
In experiment [6] the test system is SW-620. Description: Induction of apoptosis in human SW620 cells assessed as necrotic cells at 10 uM after 48 hrs by annexin V-FITC/PI staining based flow cytometry in presence of leucovorin (reference value: 9 %). It is filed as functional.
The subject of experiment [7] is KB. Description: Inhibition of colony formation in human KB cells at 1 uM measured after 10 to 14 days by methylene blue staining based assay presence of leucovorin. Format: functional.
Experiment [8] relates to SW-620. Description: Induction of apoptosis in human SW620 cells assessed as early apoptotic cells at 10 uM after 48 hrs by annexin V-FITC/PI staining based flow cytometry in presence of leucovorin (reference value: 0.6 %). It is filed as functional.
Experiment [9] relates to SW-620. Description: Induction of apoptosis in human SW620 cells assessed as late apoptotic cells at 10 uM after 48 hrs by annexin V-FITC/PI staining based flow cytometry in presence of leucovorin (reference value: 6.4 %). Format: functional.
For experiment [10], the system named is SW-620. The experiment can be described thus: Induction of apoptosis in human SW620 cells assessed as viable cells at 10 uM after 48 hrs by annexin V-FITC/PI staining based flow cytometry in presence of leucovorin (reference value: 84.0 %). Format: functional. Particulars: SW-620, 48 h, read-out: Activity.
Experiment [11] has as its target GAR transformylase/AICAR transformylase (Homo sapiens) (UniProt P31939+P22102). Description: Inhibition of GARFTase/AICARFTase in human SW620 cells assessed as growth inhibition at 0.001 to 10 uM coincubated with adenosine. It is filed as cell-based. To be noted: SW-620.
Experiment [12] concerns the target Thymidylate synthase (Homo sapiens) (UniProt P04818). The experiment can be described thus: Inhibition of thymidylate synthase in human SW620 cells assessed as growth inhibition at 0.001 to 10 uM coincubated with excessive thymidine. Format: cell-based. Particulars: SW-620.
Experiment [13] deals with Bifunctional purine biosynthesis protein ATIC (Homo sapiens) (UniProt P31939). Description: Inhibition of AICARFTase in human SW620 cells assessed as growth inhibition at 0.001 to 10 uM coincubated with AICA. Particulars: SW-620. It is filed as cell-based.
Experiment [14] has as its target Thymidylate synthase/GAR transformylase/AICAR transformylase (Homo sapiens) (UniProt P04818+P31939+P22102). Description: Inhibition of thymidylate synthase/GARFTase/AICARFTase in human SW620 cells assessed as growth inhibition at 0.001 to 10 uM coincubated with thymidine and adenosine. Format: cell-based. To be noted: SW-620.
Experiment [15] addresses Thymidylate synthase/AICAR transformylase (Homo sapiens) (UniProt P04818+P31939). The experiment can be described thus: Inhibition of thymidylate synthase/AICARFTase in human SW620 cells assessed as growth inhibition at 0.001 to 10 uM coincubated with AICA and […]. To be noted: SW-620. It is filed as cell-based.

Chain of GAR transformylase/AICAR transformylase (Homo sapiens) (P22102 whole entry, looked up): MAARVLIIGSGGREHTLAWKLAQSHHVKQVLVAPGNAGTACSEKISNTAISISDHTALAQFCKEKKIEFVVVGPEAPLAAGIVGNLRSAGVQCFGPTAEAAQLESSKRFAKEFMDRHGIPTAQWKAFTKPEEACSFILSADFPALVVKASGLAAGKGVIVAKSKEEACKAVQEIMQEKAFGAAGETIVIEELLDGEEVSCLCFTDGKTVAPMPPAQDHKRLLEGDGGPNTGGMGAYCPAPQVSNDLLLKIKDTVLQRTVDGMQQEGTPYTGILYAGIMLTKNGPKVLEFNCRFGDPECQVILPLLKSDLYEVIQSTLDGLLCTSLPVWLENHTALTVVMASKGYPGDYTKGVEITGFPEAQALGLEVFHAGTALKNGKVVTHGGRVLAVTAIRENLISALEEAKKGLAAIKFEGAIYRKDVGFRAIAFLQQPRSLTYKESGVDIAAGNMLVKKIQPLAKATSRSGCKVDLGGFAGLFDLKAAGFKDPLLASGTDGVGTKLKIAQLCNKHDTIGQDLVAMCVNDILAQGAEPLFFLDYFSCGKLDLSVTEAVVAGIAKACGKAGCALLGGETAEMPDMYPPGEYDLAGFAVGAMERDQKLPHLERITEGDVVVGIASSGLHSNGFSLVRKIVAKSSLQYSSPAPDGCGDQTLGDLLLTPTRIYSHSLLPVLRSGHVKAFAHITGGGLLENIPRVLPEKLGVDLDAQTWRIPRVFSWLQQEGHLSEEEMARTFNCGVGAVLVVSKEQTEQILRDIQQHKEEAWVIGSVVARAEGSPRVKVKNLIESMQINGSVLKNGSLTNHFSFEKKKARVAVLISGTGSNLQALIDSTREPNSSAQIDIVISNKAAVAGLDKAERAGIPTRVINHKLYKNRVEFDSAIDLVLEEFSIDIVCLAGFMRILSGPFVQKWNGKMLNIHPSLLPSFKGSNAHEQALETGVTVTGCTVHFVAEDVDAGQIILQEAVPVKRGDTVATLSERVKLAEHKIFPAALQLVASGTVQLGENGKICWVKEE
Chain of GAR transformylase/AICAR transformylase (Homo sapiens) (P31939 whole entry, looked up): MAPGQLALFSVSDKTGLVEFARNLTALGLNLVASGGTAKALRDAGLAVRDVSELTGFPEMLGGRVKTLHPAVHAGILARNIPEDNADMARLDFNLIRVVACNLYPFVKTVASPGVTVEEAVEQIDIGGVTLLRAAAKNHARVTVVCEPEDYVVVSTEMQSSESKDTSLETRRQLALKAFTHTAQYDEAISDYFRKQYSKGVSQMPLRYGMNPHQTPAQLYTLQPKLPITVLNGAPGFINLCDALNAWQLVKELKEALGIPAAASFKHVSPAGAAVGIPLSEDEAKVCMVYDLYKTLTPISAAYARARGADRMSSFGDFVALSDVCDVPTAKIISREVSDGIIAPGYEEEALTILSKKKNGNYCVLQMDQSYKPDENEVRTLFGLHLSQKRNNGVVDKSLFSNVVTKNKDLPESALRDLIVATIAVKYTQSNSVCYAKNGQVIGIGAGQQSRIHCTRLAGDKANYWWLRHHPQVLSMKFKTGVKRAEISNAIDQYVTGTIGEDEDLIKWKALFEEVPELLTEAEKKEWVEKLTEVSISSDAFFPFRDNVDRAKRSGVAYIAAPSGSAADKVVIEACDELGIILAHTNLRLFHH
Chain of Bifunctional purine biosynthesis protein ATIC (Homo sapiens) (P31939 whole entry, looked up): as above
Chain of Thymidylate synthase/GAR transformylase/AICAR transformylase (Homo sapiens) (P04818 whole entry, looked up): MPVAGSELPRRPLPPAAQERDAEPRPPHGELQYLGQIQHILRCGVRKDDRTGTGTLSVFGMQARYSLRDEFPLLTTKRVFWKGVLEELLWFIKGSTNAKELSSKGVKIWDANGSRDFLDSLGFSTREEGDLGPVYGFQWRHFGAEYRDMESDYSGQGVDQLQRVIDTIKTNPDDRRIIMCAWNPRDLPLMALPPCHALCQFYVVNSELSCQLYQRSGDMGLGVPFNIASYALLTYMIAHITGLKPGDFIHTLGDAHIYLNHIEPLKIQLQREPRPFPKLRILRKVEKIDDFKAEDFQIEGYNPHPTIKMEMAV
Chain of Thymidylate synthase/GAR transformylase/AICAR transformylase (Homo sapiens) (P22102 whole entry, looked up): as the sequence (P22102 whole entry, looked up) above
Chain of Thymidylate synthase/GAR transformylase/AICAR transformylase (Homo sapiens) (P31939 whole entry, looked up): as the sequence (P31939 whole entry, looked up) above
Chain of Thymidylate synthase/AICAR transformylase (Homo sapiens) (P04818 whole entry, looked up): as the sequence (P04818 whole entry, looked up) above
Chain of Thymidylate synthase/AICAR transformylase (Homo sapiens) (P31939 whole entry, looked up): as the sequence (P31939 whole entry, looked up) above
Chain of Thymidylate synthase (Homo sapiens) (P04818 2-313 limits assumed): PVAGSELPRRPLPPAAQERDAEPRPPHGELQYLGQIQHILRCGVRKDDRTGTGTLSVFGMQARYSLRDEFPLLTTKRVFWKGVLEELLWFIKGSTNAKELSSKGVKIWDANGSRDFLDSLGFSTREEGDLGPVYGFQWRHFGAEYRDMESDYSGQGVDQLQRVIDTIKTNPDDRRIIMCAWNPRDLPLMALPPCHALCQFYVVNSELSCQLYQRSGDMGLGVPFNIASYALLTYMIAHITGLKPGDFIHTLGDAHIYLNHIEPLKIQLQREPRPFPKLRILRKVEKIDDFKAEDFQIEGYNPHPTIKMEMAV

As a reminder, the IC50 is the concentration that gives 50% inhibition. Consider `Nc1nc2[nH]c(CCSCC(=O)N[C@@H](CCC(=O)O)C(=O)O)cc2c(=O)[nH]1`, for which the IC50 in experiment [1] worked out at 0.442 µM; in the experiment on A549 it was 0.668 µM; in the experiment with KB [2] it was 0.373 µM.

Consider `Nc1nc2[nH]c(CCSCC(=O)NCc3cccnc3)cc2c(=O)[nH]1`, for which the IC50 in [1] was determined as 25.3 µM; with A549 it was 56.6 µM; with KB [2], 37.5 µM.

`Nc1nc2[nH]cc(CCc3ccc(C(=O)N[C@@H](CCC(=O)O)C(=O)O)cc3)c2c(=O)[nH]1` [PEMETREXED]: the Activity in experiment [3] was 0%; in experiment [4], 45.8%; in [5], 54.2%. For the same compound, the IC50 in experiment [1] was determined as 0.08 µM; in the experiment with A549, 1.26 µM.

Usually inhibition stands for the share of the control response that was lost under treatment. As for `Nc1nc2[nH]c(CCSCCC(=O)NCc3cccnc3)cc2c(=O)[nH]1`, the Activity in [3] is 8.6%; in the experiment with SW-620 [6], 22%; in [4] it was 66.5%; in the experiment on SW-620 [8] it was 1.1%; in experiment [5], 24.9%; in the experiment on SW-620 [9], 25.1%. Moreover, the values for the IC50 (in experiment [1]; in the experiment with A549; with KB [2]) were 0.665 µM, 1.07 µM and 0.648 µM, respectively. For the same compound, the inhibition at 1 µM with KB [7] is 70%. For the same compound, the viability at 10 µM in the experiment with SW-620 [10] amounted to 51.8%.

Turning to `Nc1nc2[nH]c(CCSCCC(=O)NCc3ccccn3)cc2c(=O)[nH]1`, the IC50 in [1] is 11.9 µM; with A549 it was 77.3 µM; in the experiment with KB [2], 8.93 µM.

In the case of `Nc1nc2[nH]c(CCSCCC(=O)N[C@@H](CCC(=O)O)C(=O)O)cc2c(=O)[nH]1`, the “growth inhibition (GI)” value in experiment [11], in [12], in experiment [13], in [14] and in experiment [15] was “inactive” throughout. Besides, the Activity in experiment [3] came out at 4.5%; with SW-620 [6], 41.6%; in experiment [4], 56.3%; with SW-620 [8], 1.5%; in [5], 39.2%; with SW-620 [9] it was 34.8%. The figures for the IC50 (in experiment [1]; in the experiment on A549; in the experiment on KB [2]) were 0.387 µM, 0.713 µM and 0.324 µM, respectively. The inhibition at 1 µM in the experiment with KB [7] is 80%. Besides, in the experiment on SW-620 [10], the viability at 10 µM came out at 22.1%.

`Nc1nc2[nH]c(CCSCC(=O)NCc3ccccn3)cc2c(=O)[nH]1`: the IC50 in [1] was found to be 36.1 µM; with A549, 14.1 µM; in the experiment on KB [2], 28.4 µM.

In the case of `Nc1nc2[nH]c(CCSCC(=O)NCc3ccncc3)cc2c(=O)[nH]1`, the IC50 in experiment [1] turned out to be 22.7 µM; in the experiment on A549 it was 42.4 µM; in the experiment with KB [2], 14.1 µM.

As for `CN(Cc1cnc2nc(N)nc(N)c2n1)c1ccc(C(=O)N[C@@H](CCC(=O)O)C(=O)O)cc1` [METHOTREXATE], the IC50 in experiment [1] was 0.013 µM; in the experiment with A549, 0.99 µM.

`Nc1nc2[nH]c(CCSCCC(=O)NCc3ccncc3)cc2c(=O)[nH]1`: the IC50 in experiment [1] worked out at 24.8 µM; in the experiment with A549 it was 7.87 µM; in the experiment with KB [2], 45.6 µM.
